According to patent US20130096067A1, “DROSOPHILA TUMOR STEM CELL MODEL AND USES THEREOF” (priority 2011, published 2013):
Peptide text beside a SMILES is read from it. * marks the point of attachment. Cbz = O=C(OCc1ccccc1)*; CH2F = FC*

Tests used:
[1] = test system: Raf-1^gof intestinal tumors; experiment: Luciferase screen of FDA-approved (NCI) drugs in 96-well plates, flies with Raf-1^gof intestinal tumors; type: in vivo, Drosophila; settings: for Avg (3 + 6): average of Day 3 and Day 6 fold; for Day 6 Fold: six-day protocol: single dose for three days, then another dose for three more days; on Avg (3 + 6): test concentration or dose not given here; on Log2 (fold): test concentration or dose not given here
[2] = test system: Raf-1^gof intestinal tumors; settings: for Log2 (fold) of luciferase activity relative to DMSO controls / Fold (luciferase activity relative to DMSO controls): ICCB compounds fed in vials to flies with one-day old Raf-1^gof tumors; for Log2 (fold) of luciferase activity relative to DMSO controls / Fold (luciferase activity relative to DMSO controls) / Log2 (fold) (luciferase activity, log2 of the fold difference relative to DMSO controls) / Fold (luciferase activity, fold difference relative to DMSO controls): assessed three days later; for Fold (luciferase activity relative to DMSO controls) / Fold (luciferase activity, fold difference relative to DMSO controls): averaged from multiple wells; for Log2 (fold) (luciferase activity, log2 of the fold difference relative to DMSO controls) / Fold (luciferase activity, fold difference relative to DMSO controls): screen of 480 ICCB compounds in vials, compounds fed to flies with one-day old Raf-1^gof tumors, esg-Gal4 luciferase; for Fold: Table 3 summary of hits, Screen ICCB, luciferase relative to DMSO, fed three consecutive days in vials; on Fold (luciferase activity relative to DMSO controls): test concentration or dose not given here; on Fold (luciferase activity, fold difference relative to DMSO controls): test concentration or dose not given here; on Log2 (fold) (luciferase activity, log2 of the fold difference relative to DMSO controls): test concentration or dose not given here; on Log2 (fold) of luciferase activity relative to DMSO controls: test concentration or dose not given here
[3] = log2 of the Day 3 fold difference in luciferase relative to DMSO controls
[4] = luciferase activity relative to DMSO controls, single dose of drug for three days, 96-well plates

Row | Compound | Avg (3 + 6) [1] | Log2 (fold) [1, 3] | Day 3 Fold [1, 4] | Day 6 Fold [1] | Log2 (fold) of luciferase activity relative to DMSO controls [2] | Fold (luciferase activity relative to DMSO controls) [2] | Log2 (fold) (luciferase activity, log2 of the fold difference relative to DMSO controls) [2] | Fold (luciferase activity, fold difference relative to DMSO controls) [2] | also measured
1 | CCN(CC)CCCC(C)Nc1c2ccc(Cl)cc2nc2ccc(OC)cc12 (centres unmarked) [Acrichine] | 1.046 fold | −0.212 | 0.863 fold | 1.229 fold | – | – | – | – | –
2 | Oc1ncnc2[nH]ncc12 [Allopurinol] | 1.997 fold | 1.281 | 2.430 fold | 1.565 fold | – | – | – | – | –
3 | CN(C)c1nc(N(C)C)nc(N(C)C)n1 [Altretamine] | 0.611 fold | −0.625 | 0.649 fold | 0.574 fold | – | – | – | – | –
4 | NCCCNCCSP(=O)(O)O [Amifostine] | 1.239 fold | 0.248 | 1.187 fold | 1.291 fold | – | – | – | – | –
5 | NCC(=O)CCC(=O)O [Aminolevulinic acid] | 0.897 fold | −0.016 | 0.989 fold | 0.805 fold | – | – | – | – | –
6 | CC(C)(C#N)c1cc(Cn2cncn2)cc(C(C)(C)C#N)c1 [Anastrozole] | 1.000 fold | −0.053 | 0.964 fold | 1.036 fold | – | – | – | – | –
7 | Nc1ncn([C@@H]2O[C@H](CO)[C@@H](O)[C@H]2O)c(=O)n1 [Azacitidine] | 1.045 fold | 0.157 | 1.115 fold | 0.976 fold | – | – | – | – | –
8 | CS(=O)(=O)OCCCCOS(C)(=O)=O [Busulfan] | 0.936 fold | 0.166 | 1.122 fold | 0.750 fold | – | – | – | – | –
9 | CCCCCOC(=O)Nc1nc(=O)n([C@@H]2O[C@H](C)[C@@H](O)[C@H]2O)cc1F [Capecitabine] | 1.017 fold | −0.078 | 0.947 fold | 1.087 fold | – | – | – | – | –
10 | N.N.O=C([O-])C1(C(=O)[O-])CCC1.[Pt+2] [Carboplatin] | 1.159 fold | 0.059 | 1.042 fold | 1.276 fold | – | – | – | – | –
11 | O=NN(CCCl)C(=O)NCCCl [Carmustine] | 0.496 fold | – | – | – | – | – | – | – | Day 3 Fold ([1]; po, 72 h): 0.565 fold; Log2 (fold) ([1]; po, 72 h): −0.823
12 | Cc1ccc(-c2cc(C(F)(F)F)nn2-c2ccc(S(N)(=O)=O)cc2)cc1 [Celecoxib] | 0.755 fold | −0.565 | 0.676 fold | 0.834 fold | – | – | – | – | –
13 | O=C(O)CCCc1ccc(N(CCCl)CCCl)cc1 [Chlorambucil] | 1.022 fold | 0.175 | 1.129 fold | 0.915 fold | – | – | – | – | –
14 | N.N.[Cl][Pt][Cl] [Cisplatin] | 1.113 fold | 0.145 | 1.106 fold | 1.120 fold | – | – | – | – | –
15 | Nc1nc(Cl)nc2c1ncn2[C@H]1C[C@H](O)[C@@H](CO)O1 [Cladribine] | 0.852 fold | 0.072 | 1.051 fold | 0.652 fold | – | – | – | – | –
16 | Nc1nc(Cl)nc2c1ncn2[C@@H]1O[C@H](CO)[C@@H](O)[C@@H]1F [Clofarabine] | 0.868 fold | −0.164 | 0.893 fold | 0.843 fold | – | – | – | – | –
17 | N#CC(C#N)=Cc1ccc([N+](=O)[O-])c(O)c1 [tyrphostin AG-126] | – | – | – | – | −0.085 | 0.943 fold | – | – | –
18 | N#CC(=Cc1ccc2[nH]ccc2c1)C(N)=C(C#N)C#N [tyrphostin AG-370] | – | – | – | – | 0.314 | 1.243 fold | – | – | –
19 | COc1cc(/C=C(\C#N)C(N)=O)cc(CSc2nc3ccccc3s2)c1O [tyrphostin AG-825] | – | – | – | – | −0.042 | 0.972 fold | – | – | –
20 | CC(C)[C@@H]1NC(=O)[C@H](C)OC(=O)[C@@H](C(C)C)NC(=O)[C@@H](C(C)C)OC(=O)[C@H](C(C)C)NC(=O)[C@H](C)OC(=O)[C@@H](C(C)C)NC(=O)[C@@H](C(C)C)OC(=O)[C@H](C(C)C)NC(=O)[C@H](C)OC(=O)[C@@H](C(C)C)NC(=O)[C@@H](C(C)C)OC1=O [valinomycin] | – | – | – | – | – | – | −0.408 | 0.754 | –
21 | CCOC(=O)C1=C[C@]2(CC)CCCN3CCc4c(n1c1ccccc41)[C@@H]32 [vinpocetine] | – | – | – | – | 0.280 | 1.214 fold | – | – | –
22 | COC(=O)[C@@H]1[C@H]2C[C@H]3c4[nH]c5ccccc5c4CCN3C[C@@H]2CC[C@@H]1O [yohimbine] | – | – | – | – | 0.061 | 1.043 fold | – | – | –

Row | Compound | Avg (3 + 6) [1] | Log2 (fold) [1, 3] | Day 3 Fold [1, 4] | Day 6 Fold [1] | Log2 (fold) of luciferase activity relative to DMSO controls [2] | Fold (luciferase activity relative to DMSO controls) [2] | Log2 (fold) (luciferase activity, log2 of the fold difference relative to DMSO controls) [2] | Fold (luciferase activity, fold difference relative to DMSO controls) [2] | also measured
23 | COC(=O)C[C@H](NC(=O)[C@H](C)NC(=O)[C@@H](NC(=O)OCc1ccccc1)C(C)C)C(=O)CF [zVAD-FMK] (Cbz-Val-Ala-Asp(OMe)-CH2F) | – | – | – | – | – | – | −0.597 | 0.661 | –
24 | CCCOc1ccccc1-c1nc2nn[nH]c2c(=O)[nH]1 [zaprinast] | – | – | – | – | −0.055 | 0.962 fold | – | – | –
25 | COc1cc(-c2ccc(=O)[nH]n2)ccc1OC(F)F [zardaverine] | – | – | – | – | 0.145 | 1.106 fold | – | – | –
26 | BW-B 70C | – | – | – | – | 0.116 | 1.084 fold | – | – | –
27 | Cyclo [Cyclo [Arg-Gly-Asp-D-Phe-Val]] | – | – | – | – | – | – | −0.221 | 0.858 | –
28 | HA14-1 | – | – | – | – | – | – | −0.590 | 0.664 | –
29 | ICRF-193 [reference compound] | – | – | – | – | – | – | −1.459 | 0.364 | Fold [2]: 0.364 fold
30 | KN-62 | – | – | – | – | – | – | −0.513 | 0.701 | –
31 | LY-83583 | – | – | – | – | – | – | −0.465 | 0.725 | –
32 | LY-171883 | – | – | – | – | 0.168 | 1.124 fold | – | – | –
33 | LY-294002 | – | – | – | – | −0.204 | 0.868 fold | – | – | –
34 | LYSOPHOSPHATIDIC ACID | – | – | – | – | – | – | −0.509 | 0.703 | –
35 | MDL-28170 | – | – | – | – | – | – | −0.617 | 0.652 | –
36 | METHOXY VERAPAMIL | – | – | – | – | −0.069 | 0.954 fold | – | – | –
37 | PROSTAGLANDIN J2 | – | – | – | – | – | – | −0.525 | 0.695 | –
38 | Ro 20-1724 | – | – | – | – | – | – | −0.242 | 0.846 | –
39 | Ro 31-8220 | – | – | – | – | 0.158 | 1.116 fold | – | – | –
40 | calphostin C | – | – | – | – | – | – | −0.707 | 0.613 | –
41 | mastoparan | – | – | – | – | – | – | −0.301 | 0.812 | –
42 | pifithrin | – | – | – | – | 0.022 | 1.015 fold | – | – | –
43 | tunicamycin [reference compound] | – | – | – | – | – | – | −1.925 | 0.263 | Fold [2]: 0.263 fold
